Test results as given in patent publication US9962369B2, “Methods and compositions for transdermal delivery” (SPRAYABLE HOLDINGS, INC., priority 2014, dated 2018).

Legend:
human skin tissue = test: Penetration rate of AI compound in AI-helper composition through human skin in vitro, modified Franz cells; assay type: in vitro ADME
Method: Penetration rate of AI compound in the AI-helper composition through human skin were measured in vitro by modified Franz cells. A Franz cell had two chambers: the top sample chamber and the bottom receiving chamber. The human skin tissue (450-500 μm thick) that separated the top and the receiving chambers was isolated from the anterior or posterior thigh areas.

clinical = settings: human, plasma, topical, 3 mg
[1] = Solubility of AI compound in AI-helper composition (AI compound added until saturated); assay type: physicochemical; settings: water
Method: Solubility was tested by adding small amounts of AI compound to a set volume of an AI-helper composition at a certain temperature until the AI-helper composition was saturated with the AI compound, and measuring the amount of the AI compound added to calculate the solubility of the AI compound in the AI-helper composition at the temperature.

SMILES: COc1ccc2[nH]cc(CCNC(C)=O)c2c1 [Melatonin]
- Skin penetration rate of melatonin (human skin tissue; 1% melatonin (a suspension) without helper esters, 20° C.): 1.153 ± 0.111 μg/cm^2/h
- Skin penetration rate of melatonin (human skin tissue; melatonin 1% w/v, Tryptophan isopropyl ester•HA 6% w/v, HA = 1/2H2SO4, water, 20° C.): 15.928 ± 1.476 μg/cm^2/h
- Skin penetration rate of melatonin (human skin tissue; melatonin 1% w/v, Tryptophan isopropyl ester•HA 6% w/v, HA = 2/3H3PO4, water, 20° C.): 15.691 ± 1.571 μg/cm^2/h
- Skin penetration rate of melatonin (human skin tissue; melatonin 1% w/v, Tryptophan isopropyl ester•HA 6% w/v, HA = Benzoic acid, water, 20° C.): 14.665 ± 1.589 μg/cm^2/h
- Skin penetration rate of melatonin (human skin tissue; melatonin 1% w/v, Tryptophan isopropyl ester•HA 6% w/v, HA = Butyric acid, water, 20° C.): 15.378 ± 1.598 μg/cm^2/h
- Skin penetration rate of melatonin (human skin tissue; melatonin 1% w/v, Tryptophan isopropyl ester•HA 6% w/v, HA = Citric acid, water, 20° C.): 15.371 ± 1.287 μg/cm^2/h
- Skin penetration rate of melatonin (human skin tissue; melatonin 1% w/v, Tryptophan isopropyl ester•HA 6% w/v, HA = H2SO4, water, 20° C.): 16.780 ± 1.891 μg/cm^2/h
- Skin penetration rate of melatonin (human skin tissue; melatonin 1% w/v, Tryptophan isopropyl ester•HA 6% w/v, HA = HBr, water, 20° C.): 15.971 ± 1.785 μg/cm^2/h
- Skin penetration rate of melatonin (human skin tissue; melatonin 1% w/v, Tryptophan isopropyl ester•HA 6% w/v, HA = HCl, water, 20° C.): 16.678 ± 1.567 μg/cm^2/h
- Skin penetration rate of melatonin (human skin tissue; melatonin 1% w/v, Tryptophan isopropyl ester•HA 6% w/v, HA = HF, water, 20° C.): 16.165 ± 1.167 μg/cm^2/h
- Skin penetration rate of melatonin (human skin tissue; melatonin 1% w/v, Tryptophan isopropyl ester•HA 6% w/v, HA = HI, water, 20° C.): 14.467 ± 1.183 μg/cm^2/h
- Skin penetration rate of melatonin (human skin tissue; melatonin 1% w/v, Tryptophan isopropyl ester•HA 6% w/v, HA = Lactic acid, water, 20° C.): 15.897 ± 1.109 μg/cm^2/h
- Skin penetration rate of melatonin (human skin tissue; melatonin 1% w/v, Tyrosine isopropyl ester•HA 6% w/v, HA = 1/2H2SO4, water, 20° C.): 15.978 ± 2.136 μg/cm^2/h
- Skin penetration rate of melatonin (human skin tissue; melatonin 1% w/v, Tyrosine isopropyl ester•HA 6% w/v, HA = 1/3H3PO4, water, 20° C.): 15.848 ± 1.782 μg/cm^2/h
- Skin penetration rate of melatonin (human skin tissue; melatonin 1% w/v, Tyrosine isopropyl ester•HA 6% w/v, HA = 2/3H3PO4, water, 20° C.): 16.156 ± 3.124 μg/cm^2/h
- Skin penetration rate of melatonin (human skin tissue; melatonin 1% w/v, Tyrosine isopropyl ester•HA 6% w/v, HA = Acetic acid, water, 20° C.): 15.983 ± 3.471 μg/cm^2/h
- Skin penetration rate of melatonin (human skin tissue; melatonin 1% w/v, Tyrosine isopropyl ester•HA 6% w/v, HA = Benzoic acid, water, 20° C.): 17.002 ± 3.257 μg/cm^2/h
- Skin penetration rate of melatonin (human skin tissue; melatonin 1% w/v, Tyrosine isopropyl ester•HA 6% w/v, HA = Butyric acid, water, 20° C.): 16.125 ± 1.972 μg/cm^2/h
- Skin penetration rate of melatonin (human skin tissue; melatonin 1% w/v, Tyrosine isopropyl ester•HA 6% w/v, HA = Citric acid, water, 20° C.): 16.246 ± 2.319 μg/cm^2/h
- Skin penetration rate of melatonin (human skin tissue; melatonin 1% w/v, Tyrosine isopropyl ester•HA 6% w/v, HA = H2SO4, water, 20° C.): 16.632 ± 1.357 μg/cm^2/h
- Skin penetration rate of melatonin (human skin tissue; melatonin 1% w/v, Tyrosine isopropyl ester•HA 6% w/v, HA = HBr, water, 20° C.): 16.578 ± 2.117 μg/cm^2/h
- Skin penetration rate of melatonin (human skin tissue; melatonin 1% w/v, Tyrosine isopropyl ester•HA 6% w/v, HA = HF, water, 20° C.): 15.765 ± 1.946 μg/cm^2/h
- Skin penetration rate of melatonin (human skin tissue; melatonin 1% w/v, Tyrosine isopropyl ester•HA 6% w/v, HA = HI, water, 20° C.): 15.863 ± 1.970 μg/cm^2/h
- Skin penetration rate of melatonin (human skin tissue; melatonin 1% w/v, Tyrosine isopropyl ester•HA 6% w/v, HA = Lactic acid, water, 20° C.): 16.029 ± 2.467 μg/cm^2/h
- Skin penetration rate of melatonin (human skin tissue; no helper ester (None), melatonin 1 % w/v (suspension) in water, 20 °C): 1.153 ± 0.111 μg/cm^2/h
- Skin penetration rate of AI compound (human skin tissue; no isoleucine ester (None), AI compound 0.5 % w/v (a suspension) in water, 20 °C): 1.147 ± 0.123 μg/cm^2/h
- Skin penetration rate of AI compound (human skin tissue; no leucine ester (None), AI compound 0.5 % w/v (a suspension) in water, 20 °C): 1.147 ± 0.123 μg/cm^2/h
- Skin penetration rate of melatonin (human skin tissue; no proline ester (None), melatonin 0.5 % w/v (suspension) in water, 20 °C): 1.147 ± 0.123 μg/cm^2/h
- Skin penetration rate of AI compound (human skin tissue; no tryptophan ester (None), AI compound 1 % w/v (suspension) in water, 20 °C): 1.153 ± 0.111 μg/cm^2/h
- Skin penetration rate of melatonin (human skin tissue; no tyrosine ester (None), melatonin 1 % w/v (suspension) in water, 20 °C): 1.153 ± 0.111 μg/cm^2/h
- Skin penetration rate of AI compound (human skin tissue; with D-tryptophan ethyl ester hydrochloride 6 % w/v in water, AI compound 1 % w/v, 20 °C): 16.011 ± 1.511 μg/cm^2/h
- Skin penetration rate of AI compound (human skin tissue; with D-tryptophan isopropyl ester hydrochloride 6 % w/v in water, AI compound 1 % w/v, 20 °C): 16.451 ± 1.473 μg/cm^2/h
- Skin penetration rate of AI compound (human skin tissue; with D-tryptophan pentyl ester hydrochloride 6 % w/v in water, AI compound 1 % w/v, 20 °C): 15.003 ± 1.513 μg/cm^2/h
- Skin penetration rate of AI compound (human skin tissue; with L-isoleucine ethyl ester hydrochloride 6 % w/v in water, AI compound 0.5 % w/v, 20 °C): 9.012 ± 0.148 μg/cm^2/h
- Skin penetration rate of AI compound (human skin tissue; with L-isoleucine isopropyl ester hydrochloride 6 % w/v in water, AI compound 0.5 % w/v, 20 °C): 9.015 ± 0.161 μg/cm^2/h
- Skin penetration rate of AI compound (human skin tissue; with L-isoleucine methyl ester hydrochloride 6 % w/v in water, AI compound 0.5 % w/v, 20 °C): 8.712 ± 0.168 μg/cm^2/h
- Skin penetration rate of AI compound (human skin tissue; with L-isoleucine pentyl ester hydrochloride 6 % w/v in water, AI compound 0.5 % w/v, 20 °C): 8.219 ± 0.201 μg/cm^2/h
- Skin penetration rate of AI compound (human skin tissue; with L-leucine ethyl ester hydrochloride 6 % w/v in water, AI compound 0.5 % w/v, 20 °C): 9.101 ± 0.153 μg/cm^2/h
- Skin penetration rate of AI compound (human skin tissue; with L-leucine hexyl ester hydrochloride 6 % w/v in water, AI compound 0.5 % w/v, 20 °C): 8.019 ± 0.181 μg/cm^2/h
- Skin penetration rate of AI compound (human skin tissue; with L-leucine isopropyl ester hydrochloride 6 % w/v in water, AI compound 0.5 % w/v, 20 °C): 9.371 ± 0.137 μg/cm^2/h
- Skin penetration rate of AI compound (human skin tissue; with L-leucine methyl ester hydrochloride 6 % w/v in water, AI compound 0.5 % w/v, 20 °C): 9.058 ± 0.131 μg/cm^2/h
- Skin penetration rate of AI compound (human skin tissue; with L-tryptophan butyl ester hydrochloride 6 % w/v in water, AI compound 1 % w/v, 20 °C): 15.676 ± 1.574 μg/cm^2/h
- Skin penetration rate of AI compound (human skin tissue; with L-tryptophan isopropyl ester hydrochloride 6 % w/v in water, AI compound 1 % w/v, 20 °C): 16.678 ± 1.567 μg/cm^2/h
- Skin penetration rate of AI compound (human skin tissue; with L-tryptophan pentyl ester hydrochloride 6 % w/v in water, AI compound 1 % w/v, 20 °C): 15.012 ± 1.315 μg/cm^2/h
- concentration at 0 hr (clinical): 0 ng/mL
- concentration at 1 h (clinical): 1.4 ng/mL
- concentration at 1 hr (clinical): 1.6 ng/mL
- concentration at 2 h (clinical): 1.5 ng/mL
- concentration at 2 hr (clinical): 1.7 ng/mL
- concentration at 4 h (clinical): 1.5 ng/mL
- concentration at 4 hr (clinical): 1.8 ng/mL
- concentration at 8 h (clinical): 1.4 ng/mL
- concentration at 8 hr (clinical): 1.7 ng/mL
- Solubility of melatonin ([1]; tryptophan isopropyl ester•HA 10% w/v, HA = 1/2H2SO4, 20° C.): >1.4% (w/v)
- Solubility of melatonin ([1]; tryptophan isopropyl ester•HA 10% w/v, HA = 1/3H3PO4, 20° C.): >1.2% (w/v)
- Solubility of melatonin ([1]; tryptophan isopropyl ester•HA 10% w/v, HA = 2/3H3PO4, 20° C.): >1.3% (w/v)
- Solubility of melatonin ([1]; tryptophan isopropyl ester•HA 10% w/v, HA = Citric acid, 20° C.): >1.2% (w/v)
- Solubility of melatonin ([1]; tryptophan isopropyl ester•HA 10% w/v, HA = H2SO4, 20° C.): >1.4% (w/v)
- Solubility of melatonin ([1]; tryptophan isopropyl ester•HA 10% w/v, HA = HBr, 20° C.): >1.4% (w/v)
- Solubility of melatonin ([1]; tryptophan isopropyl ester•HA 10% w/v, HA = HCl, 20° C.): >1.5% (w/v)
- Solubility of melatonin ([1]; tryptophan isopropyl ester•HA 10% w/v, HA = HF, 20° C.): >1.5% (w/v)
- Solubility of melatonin ([1]; tryptophan isopropyl ester•HA 10% w/v, HA = HI, 20° C.): >1.3% (w/v)
- Solubility of melatonin ([1]; tryptophan isopropyl ester•HA 10% w/v, HA = acetic acid, 20° C.): >1.4% (w/v)
- Solubility of melatonin ([1]; tryptophan isopropyl ester•HA 10% w/v, HA = benzoic acid, 20° C.): >1.3% (w/v)
- Solubility of melatonin ([1]; tryptophan isopropyl ester•HA 10% w/v, HA = butyric acid, 20° C.): >1.3% (w/v)
- Solubility of melatonin ([1]; tryptophan isopropyl ester•HA 10% w/v, HA = lactic acid, 20° C.): >1.4% (w/v)
- Solubility of melatonin ([1]; tyrosine isopropyl ester•HA 10% w/v, HA = 1/2H2SO4, 20° C.): >1% (w/v)
- Solubility of melatonin ([1]; tyrosine isopropyl ester•HA 10% w/v, HA = 1/3H3PO4, 20° C.): >1.0% (w/v)
- Solubility of melatonin ([1]; tyrosine isopropyl ester•HA 10% w/v, HA = 2/3H3PO4, 20° C.): >1.1% (w/v)
- Solubility of melatonin ([1]; tyrosine isopropyl ester•HA 10% w/v, HA = H2SO4, 20° C.): >1.2% (w/v)
- Solubility of melatonin ([1]; tyrosine isopropyl ester•HA 10% w/v, HA = HBr, 20° C.): >1.2% (w/v)
- Solubility of melatonin ([1]; tyrosine isopropyl ester•HA 10% w/v, HA = HCl, 20° C.): >1.3% (w/v)
- Solubility of melatonin ([1]; tyrosine isopropyl ester•HA 10% w/v, HA = HF, 20° C.): >1.3% (w/v)
- Solubility of melatonin ([1]; tyrosine isopropyl ester•HA 10% w/v, HA = HI, 20° C.): >1% (w/v)
- Solubility of melatonin ([1]; tyrosine isopropyl ester•HA 10% w/v, HA = acetic acid, 20° C.): >1.1% (w/v)
- Solubility of melatonin ([1]; tyrosine isopropyl ester•HA 10% w/v, HA = benzoic acid, 20° C.): >1% (w/v)
- Solubility of melatonin ([1]; tyrosine isopropyl ester•HA 10% w/v, HA = butyric acid, 20° C.): >1% (w/v)
- Solubility of melatonin ([1]; tyrosine isopropyl ester•HA 10% w/v, HA = citric acid, 20° C.): >1% (w/v)
- Solubility of melatonin ([1]; tyrosine isopropyl ester•HA 10% w/v, HA = lactic acid, 20° C.): >1.1% (w/v)
